According to US7371734B2, “Oligonucleotide compositions and their use for the modulation of immune responses” (Bioniche Life Sciences Inc., priority 2002, dated 2008):
Marks after values point to notes of the source that are not given here.

Tests used:
Human dendritic cells [1] = assay: Induction of IL-1beta production by DC (ELISA); type: cell-based; details: 100 μg, 48 hours
How it was run: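 Cells from three donors, seeded at 1.0×10^5 cells/ml, were exposed for 48 hours to 100 μg of 6-base polynucleotides. IL-1beta in culture supernatant measured by ELISA; values are fold increase over untreated control cells.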

Human dendritic cells [2] = assay: OX-2 levels at the DC cell surface (flow cytometry); type: cell-based; details: DC from individual A, 48 hours
Method: Human dendritic cells were obtained from Clonetics (San Diego, Calif., USA) and were cultured in the medium recommended by Clonetics. DC were obtained from three different individuals (see Table 1). Major histocompatability typing was performed on each of these individuals and several of the HLA (human leukocyte antigens) types are shown.
DC from individual A were seeded in 1.0 ml at 1.0×10^5 cells/ml in 6-well flat-bottomed tissue culture plates for 48 hours with 1, 10 or 100 μg of 6 base N3A or N6A polynucleotides. The level of OX-2 at the cell surface was determined after 48 hours of incubation by flow cytometry using a FITC-conjugated monoclonal antibody directed to OX-2 (BioSPARK, Greenwich, Conn., USA) and analyzed by CELLQuest Pro. […] Results are expressed as the percentage of OX-2^hi DC following treatment.

female BALB/C mice [3] = assay: Vaccination with hepatitis surface antigen (intramuscular), anti-HbsAg end-point dilution ELISA; type: in vivo
Method: Immunization with recombinant hepatitis B surface antigen (HbsAg; Cortex Biochemical, San Leandro, Calif., USA) combined with aluminum hydroxide (Alum; SuperFos Biosector, Vedback, Denmark) and/or with N3A, N6A or N6B polynucleotides, was conducted on 6-8 week old female BALB/C mice (Charles River, St-Constant, Qc, Canada). Each mouse (5 mice per group) received a single intramuscular injection into the tibialis muscle of a solution containing: Saline (Group 1), HbsAg 1 μg (Group 2), HbsAg 1 μg+Alum 10 μg (Group 3), HbsAg 1 μg+Alum 10 μg+N3A 10 μg (Group 4), HbsAg 1 μg+Alum 10 μg+N3A 100 μg (Group 5), HbsAg 1 μg+Alum 10 μg+N3B10 μg (Group 6), HbsAg 1 μg+Alum 10 μg+N3B100 μg (Group 7), HbsAg 1 μg+Alum 10 μg+N6A 10 μg (Group 8), HbsAg 1 μg+Alum 10 μg+N6A 100 μg (Group 9), HbsAg 1 μg+Alum 10 μg+N6B 10 μg (Group 10) and HbsAg 1 μg+Alum 10 μg+N6B 100 μg (Group 11) in a total volume of 50 μl at day 0 and day 21. Plasma was recovered at day 31.
Antibodies specific to HbsAg were detected and quantified by end-point dilution assay ELISA. Briefly, a solid phase of HbsAg protein (0.1 μg per well, overnight at 4° C.) was used to capture anti-HbsAg in the plasma (1 hour at 37° C.), which were then detected with horseradish peroxidase-conjugated goat anti-mouse IgG (total), IgG1 and IgG2a following the instructions of the manufacturer (Clonetyping system, Southern Biotechnology Inc., Birmingham, Ala., USA). […] Data are expressed in Table 13 as the mean±SD of 5 mice per group.

female BALB/C mice [4] = assay: Oral vaccination with hepatitis surface antigen, anti-HbsAg ELISA; type: in vivo; details: oral day 0, 7, 14, 450 nm; for IgA total at 1:2 dilution, mean ± SD: gut washes day 21; for Total IgG at 1:32 dilution, mean ± SD: plasma day 21
Method: Immunization with recombinant hepatitis B surface antigen combined with N6A or N6B polynucleotide was conducted on 6-8 week old female BALB/C mice (Charles River, St-Constant, Qc, Canada). Each mouse (5 mice per group) has received orally a solution containing: Saline (Group 1), HbsAg 10 μg (Group 2), HbsAg 10 μg+N6A 1 μg (Group 3), HbsAg 10 μg+N6A 10 μg (Group 4), HbsAg 10 μg+N6A 100 μg (Group 5), HbsAg 10 μg+N6B 1 μg (Group 6), HbsAg 10 μg+N6B 10 μg (Group 7) and HbsAg 10 μg+N6B 100 μg (Group 8) in a total volume of 50 μl at day 0, 7 and day 14. Plasma and gut washes were recovered at day 21. Gut washes (for IgA determination) were obtained by gently pipetting 0.2 ml of PBS containing protease inhibitors (10 μg pepstatin, 10 μg leupeptin, 10 μg antipain and 50 μg benzamidine).
Antibodies specific to HbsAg were detected and quantified by ELISA. Briefly, a solid phase of HbsAg protein (1.0 μg per well, overnight at 4° C.) was used to capture anti-HbsAg in the plasma or in the gut washes (1 hour at 37° C.), which were then detected with horseradish peroxidase-conjugated goat anti-mouse IgA (for gut washes) and goat anti-mouse total IgG (for plasma) following the instructions of the manufacturer (Clonetyping system, Southern Biotechnology Inc.). Data are expressed in Table 14 in OD (450 nm) as the mean±SD of 5 mice per group. […]

[5] = HbsAg 1 μg + Alum 10 μg + polynucleotide 10 μg i.m. day 0 and 21, plasma day 31
[6] = HbsAg 1 μg + Alum 10 μg + polynucleotide 100 μg i.m. day 0 and 21, plasma day 31
[7] = HbsAg 10 μg + polynucleotide 1 μg
[8] = HbsAg 10 μg + polynucleotide 10 μg
[9] = HbsAg 10 μg + polynucleotide 100 μg

5′GGGTGG3′ [N3A]
IL-1beta production by DC (fold increase compared to untreated DC) (Human dendritic cells [1]; DC isolated from individual A): 1.1 fold
IL-1beta production by DC (fold increase compared to untreated DC) (Human dendritic cells [1]; DC isolated from individual B): 1.1 fold
IL-1beta production by DC (fold increase compared to untreated DC) (Human dendritic cells [1]; DC isolated from individual C): 1.0 fold
The percentage of OX-2^hi DC following treatment (Human dendritic cells [2]; 1.0 μg): 61%
The percentage of OX-2^hi DC following treatment (Human dendritic cells [2]; 10.0 μg): 51** %
The percentage of OX-2^hi DC following treatment (Human dendritic cells [2]; 100.0 μg): 51** %
End-point titers IgG1, mean ± SD (female BALB/C mice [3]; [5]): 9300 ± 3365
End-point titers IgG2a, mean ± SD (female BALB/C mice [3]; [5]): 272 ± 255
End-point titers IgG total, mean ± SD (female BALB/C mice [3]; [5]): 849 ± 386
End-point titers IgG1, mean ± SD (female BALB/C mice [3]; [6]): 13320 ± 12993
End-point titers IgG2a, mean ± SD (female BALB/C mice [3]; [6]): 860 ± 719
End-point titers IgG total, mean ± SD (female BALB/C mice [3]; [6]): 1985 ± 1748

5′GGGAGG3′ [N6B] (DNA, backbone not given here; further chemistry not fully specified)
IL-1beta production by DC (fold increase compared to untreated DC) (Human dendritic cells [1]; DC isolated from individual A): 1.0 fold
IL-1beta production by DC (fold increase compared to untreated DC) (Human dendritic cells [1]; DC isolated from individual B): 1.1 fold
IL-1beta production by DC (fold increase compared to untreated DC) (Human dendritic cells [1]; DC isolated from individual C): 1.0 fold
IgA total at 1:2 dilution, mean ± SD (female BALB/C mice [4]; [7]): 0.549 ± 0.242 OD
Total IgG at 1:32 dilution, mean ± SD (female BALB/C mice [4]; [7]): 0.104 ± 0.030 OD
IgA total at 1:2 dilution, mean ± SD (female BALB/C mice [4]; [8]): 0.333 ± 0.156 OD
Total IgG at 1:32 dilution, mean ± SD (female BALB/C mice [4]; [8]): 0.225 ± 0.135 OD
IgA total at 1:2 dilution, mean ± SD (female BALB/C mice [4]; [9]): 0.492 ± 0.074 OD
Total IgG at 1:32 dilution, mean ± SD (female BALB/C mice [4]; [9]): 0.120 ± 0.057 OD
End-point titers IgG1, mean ± SD (female BALB/C mice [3]; [5]): 2880 ± 1126
End-point titers IgG2a, mean ± SD (female BALB/C mice [3]; [5]): 187 ± 46
End-point titers IgG total, mean ± SD (female BALB/C mice [3]; [5]): 551 ± 309
End-point titers IgG1, mean ± SD (female BALB/C mice [3]; [6]): 3560 ± 1210
End-point titers IgG2a, mean ± SD (female BALB/C mice [3]; [6]): 205 ± 76
End-point titers IgG total, mean ± SD (female BALB/C mice [3]; [6]): 660 ± 364

5′GGGTGG3′ [N3B]
IL-1beta production by DC (fold increase compared to untreated DC) (Human dendritic cells [1]; DC isolated from individual A): 1.7 fold
IL-1beta production by DC (fold increase compared to untreated DC) (Human dendritic cells [1]; DC isolated from individual B): 4.4 fold
IL-1beta production by DC (fold increase compared to untreated DC) (Human dendritic cells [1]; DC isolated from individual C): 2.1 fold
End-point titers IgG1, mean ± SD (female BALB/C mice [3]; [5]): 3460 ± 1680
End-point titers IgG2a, mean ± SD (female BALB/C mice [3]; [5]): 120 ± 26
End-point titers IgG total, mean ± SD (female BALB/C mice [3]; [5]): 287 ± 142
End-point titers IgG1, mean ± SD (female BALB/C mice [3]; [6]): 4460 ± 1884
End-point titers IgG2a, mean ± SD (female BALB/C mice [3]; [6]): 204 ± 129
End-point titers IgG total, mean ± SD (female BALB/C mice [3]; [6]): 437 ± 305

5′GGGAGG3′ [N6A] (unmodified DNA)
IL-1beta production by DC (fold increase compared to untreated DC) (Human dendritic cells [1]; DC isolated from individual A): 1.0 fold
IL-1beta production by DC (fold increase compared to untreated DC) (Human dendritic cells [1]; DC isolated from individual B): 1.1 fold
IL-1beta production by DC (fold increase compared to untreated DC) (Human dendritic cells [1]; DC isolated from individual C): 0.9 fold
The percentage of OX-2^hi DC following treatment (Human dendritic cells [2]; 1.0 μg): 64%
The percentage of OX-2^hi DC following treatment (Human dendritic cells [2]; 10.0 μg): 62%
The percentage of OX-2^hi DC following treatment (Human dendritic cells [2]; 100.0 μg): 64%
IgA total at 1:2 dilution, mean ± SD (female BALB/C mice [4]; [7]): 0.662 ± 0.166 OD
Total IgG at 1:32 dilution, mean ± SD (female BALB/C mice [4]; [7]): 0.138 ± 0.055 OD
IgA total at 1:2 dilution, mean ± SD (female BALB/C mice [4]; [8]): 0.853 ± 0.543 OD
Total IgG at 1:32 dilution, mean ± SD (female BALB/C mice [4]; [8]): 0.141 ± 0.044 OD
IgA total at 1:2 dilution, mean ± SD (female BALB/C mice [4]; [9]): 0.650 ± 0.276 OD
Total IgG at 1:32 dilution, mean ± SD (female BALB/C mice [4]; [9]): 0.121 ± 0.055 OD
End-point titers IgG1, mean ± SD (female BALB/C mice [3]; [5]): 2010 ± 2187
End-point titers IgG2a, mean ± SD (female BALB/C mice [3]; [5]): 250 ± 257
End-point titers IgG total, mean ± SD (female BALB/C mice [3]; [5]): 439 ± 705
End-point titers IgG1, mean ± SD (female BALB/C mice [3]; [6]): 6420 ± 2528
End-point titers IgG2a, mean ± SD (female BALB/C mice [3]; [6]): 291 ± 154
End-point titers IgG total, mean ± SD (female BALB/C mice [3]; [6]): 1185 ± 607
